Source: patent publication US5696083A, “Personal care composition containing pyrithione and polymyxin” (Olin Corporation, priority 1994, dated 1997)

Experiments:
Type in all cases: cell-based
Candida albicans [1] = assay: MIC in Tryptic Soy Broth, compounds alone and in mixtures; settings: Table 1, 28° C., 6-7 days
Method: (§1) Determinations of minimum inhibitory concentrations (MIC's) of the two compounds (pyrithione salts and/or polymyxin sulfate) in a nutrient broth (alone and in mixtures) were conducted to evaluate interactions. Stock solutions of pyrithione salts and/or polymyxin salts were diluted in Tryptic Soy Broth (Difco), and the dilutions were inoculated with an equal volume of bacterial culture (10^6 /ml) or fungal spore suspension (10^5 /ml) in Tryptic Soy Broth and incubated at 28° C. for 3-7 days.
(§2) The interactions of the antimicrobials were determined according to accepted procedures (M. C. Berenbaum [Tables 1 and 2] and P. F. Dougherty "Microdilution Transfer Plate Technique for Determining In Vitro Synergy of Antimicrobial Agents", ANTIMICROBIAL AGENTS AND CHEMOTHERAPY, Vol. 11, No. 2, p. 225-228 (Feb. 1977, American Society for Microbiology) [Tables 3 and 4]). The concentration of each agent in the combination that inhibits the organisms is expressed as a fraction of the concentration that causes the same effect when the same agent is tested alone (i.e., its fractional inhibitory concentration, FIC). If the sum of the FIC's is 1, the combination is additive in its antimicrobial effect; if the sum is <1, the combination is synergistic; and if the sum is >1, the combination is antagonistic.
(§3) ^a Compounds were serially diluted in Tryptic soy Broth (DIFCO),
(§4) ^b Each dilution contained 10^6 bacteria/ml of 10^5 fungi/ml.
(§5) ^a Stock solutions of ZP in dimethylsulfoxide and PB in sterile water

Gliocladium virens = assay: as above; settings: Table 1, 28° C., 6-7 days
Method: as §1, §2, §3, §4, §5

Penicillin pinophilium = assay: as above; settings: Table 1, 28° C., 6-7 days
Method: as §1, §2, §3, §4, §5

Pseudomonas oleovorans = assay: as above; settings: Table 1, 28° C., 3 days
Method: as §1, §2, §3, §4, §5

Cephalosporium sp. = assay: as above; settings: Table 1, 28° C., 6-7 days
Method: as §1, §2, §3, §4, §5

Pseudomonas aeruginosa [2] = assay: as above; settings: Table 1, 28° C., 3 days
Method: as §1, §2, §3, §4, §5

Aureobasidium pullulans = assay: as above; settings: Table 1, 28° C., 6-7 days
Method: as §1, §2, §3, §4, §5

Pseudomonas fluorescens [3] = assay: as above; settings: Table 1, 28° C., 3 days
Method: as §1, §2, §3, §4, §5

Alcaligens faecalis = assay: as above; settings: Table 1, 28° C., 3 days
Method: as §1, §2, §3, §4, §5

[4] = tested on: Trichophyton mentagrophytes; assay: as above; settings: Table 1, 28° C., 6-7 days
Method: as §1, §2, §3, §4, §5

Pseudomonas rubescens = assay: as above; settings: Table 1, 28° C., 3 days
Method: as §1, §2, §3, §4, §5

Aspergillus niger = assay: as above; settings: Table 1, 28° C., 6-7 days
Method: as §1, §2, §3, §4, §5

Proteus mirabilis [5] = assay: as above; settings: Table 1, 28° C., 3 days
Method: as §1, §2, §3, §4, §5

Pseudomonas Stutzeri = assay: as above; settings: Table 1, 28° C., 3 days
Method: as §1, §2, §3, §4, §5

Citrobacter freundii = assay: as above; settings: Table 1, 28° C., 3 days
Method: as §1, §2, §3, §4, §5

Fusarium solani = assay: as above; settings: Table 1, 28° C., 6-7 days
Method: as §1, §2, §3, §4, §5

Chaetomium globosium = assay: as above; settings: Table 1, 28° C., 6-7 days
Method: as §1, §2, §3, §4, §5

Candida albicans [6] = assay: Checkerboard MIC Test in Tryptic Soy Broth; settings: 28° C., 5 days; for Minimum Inhibitory Concentration, Compound Used Alone: checkerboard, PE methanesulfonate, Na+, 14,310 units/mg
Method: as §1, §2, §4

Pseudomonas aeruginosa [7] = assay: Checkerboard MIC Test in Tryptic Soy Broth; settings: 28° C., 3 days; for Minimum Inhibitory Concentration, Compound Used Alone: checkerboard, PE methanesulfonate, Na+, 14,310 units/mg
Method: as §1, §2, §4

Pseudomonas fluorescens [8] = assay: Checkerboard MIC Test in Tryptic Soy Broth; settings: 28° C., 3 days; for Minimum Inhibitory Concentration, Compound Used Alone: checkerboard, PE methanesulfonate, Na+, 14,310 units/mg
Method: as §1, §2, §4

[9] = tested on: Trichophyton mentagrophytes; assay: Checkerboard MIC Test in Tryptic Soy Broth; settings: 28° C., 5 days; for Minimum Inhibitory Concentration, Compound Used Alone: checkerboard, PE methanesulfonate, Na+, 14,310 units/mg
Method: as §1, §2, §4

Proteus mirabilis [10] = assay: Checkerboard MIC Test in Tryptic Soy Broth; settings: 28° C., 3 days; for Minimum Inhibitory Concentration, Compound Used Alone: checkerboard, PE methanesulfonate, Na+, 14,310 units/mg
Method: as §1, §2, §4

[11] = alone, Tryptic Soy Broth, PB sulfate 7610 units/mg
[12] = concentration of the component in SP+PB mixture, SP/PB ratio 1/20-1/10
[13] = concentration of the component in SP+PB mixture, SP/PB ratio 650
[14] = concentration of the component in SP+PB mixture, SP/PB ratio 1
[15] = Table 3, concentration of the component in SP+PE mixtures, SP/PE range 1/2048-1/4
[16] = Table 3, concentration of the component in SP+PE mixtures, SP/PE range 4-16
[17] = Table 3, concentration of the component in SP+PE mixtures, SP/PE range ≤1/128-8
[18] = Table 3, concentration of the component in SP+PE mixtures, SP/PE range 1/2-8
[19] = Table 3, concentration of the component in SP+PE mixtures, SP/PE range 1/16-4

[Na+].[O-][n+]1ccccc1[S-] [SP, sodium pyrithione]
Minimum Inhibitory Concentration, Compound Used Alone (Candida albicans [1]; [11]): 33.9 ppm | Minimum Inhibitory Concentration, Mixture (Candida albicans [1]; [12]): 6.7 ppm | Minimum Inhibitory Concentration, Compound Used Alone (Gliocladium virens; [11]): 108.3 ppm | Minimum Inhibitory Concentration, Mixture (Gliocladium virens; concentration of the component in SP+PB mixture, SP/PB ratio 1/10-1): 15.2 ppm | Minimum Inhibitory Concentration, Compound Used Alone (Penicillin pinophilium; [11]): 20.3 ppm | Minimum Inhibitory Concentration, Mixture (Penicillin pinophilium; [12]): 5.1 ppm | Minimum Inhibitory Concentration, Compound Used Alone (Pseudomonas oleovorans; [11]): 12.7 ppm | Minimum Inhibitory Concentration, Mixture (Pseudomonas oleovorans; [13]): 3.2 ppm | Minimum Inhibitory Concentration, Compound Used Alone (Cephalosporium sp.; [11]): 50.8 ppm | Minimum Inhibitory Concentration, Mixture (Cephalosporium sp.; [14]): 15.2 ppm | Minimum Inhibitory Concentration, Compound Used Alone (Pseudomonas aeruginosa [2]; [11]): 162.6 ppm | Minimum Inhibitory Concentration, Mixture (Pseudomonas aeruginosa [2]; concentration of the component in SP+PB mixture, SP/PB ratio 163-325): 81.3 ppm | Minimum Inhibitory Concentration, Compound Used Alone (Aureobasidium pullulans; [11]): 15.2 ppm | Minimum Inhibitory Concentration, Mixture (Aureobasidium pullulans; [12]): 5.1 ppm | Minimum Inhibitory Concentration, Compound Used Alone (Pseudomonas fluorescens [3]; [11]): 135.5 ppm | Minimum Inhibitory Concentration, Mixture (Pseudomonas fluorescens [3]; concentration of the component in SP+PB mixture, SP/PB ratio 3-10): 6.7 ppm | Minimum Inhibitory Concentration, Compound Used Alone (Alcaligens faecalis; [11]): 30.5 ppm | Minimum Inhibitory Concentration, Mixture (Alcaligens faecalis; concentration of the component in SP+PB mixture, SP/PB ratio 5-41): 9.3 ppm | Minimum Inhibitory Concentration, Compound Used Alone [4, 11]: 20.3 ppm | Minimum Inhibitory Concentration, Mixture ([4]; concentration of the component in SP+PB mixture, SP/PB ratio 1/10-1/3): 8.5 ppm | Minimum Inhibitory Concentration, Compound Used Alone (Pseudomonas rubescens; [11]): 23.7 ppm | Minimum Inhibitory Concentration, Mixture (Pseudomonas rubescens; [13]): 2.5 ppm | Minimum Inhibitory Concentration, Compound Used Alone (Aspergillus niger; [11]): 121.9 ppm | Minimum Inhibitory Concentration, Mixture (Aspergillus niger; concentration of the component in SP+PB mixture, SP/PB ratio 1/10): 40.6 ppm | Minimum Inhibitory Concentration, Compound Used Alone (Proteus mirabilis [5]; [11]): 325.1 ppm | Minimum Inhibitory Concentration, Mixture (Proteus mirabilis [5]; concentration of the component in SP+PB mixture, SP/PB ratio 1/20-1): 61.0 ppm | Minimum Inhibitory Concentration, Compound Used Alone (Pseudomonas Stutzeri; [11]): 81.3 ppm | Minimum Inhibitory Concentration, Mixture (Pseudomonas Stutzeri; concentration of the component in SP+PB mixture, SP/PB ratio 325-650): 40.6 ppm | Minimum Inhibitory Concentration, Compound Used Alone (Citrobacter freundii; [11]): 12.7 ppm | Minimum Inhibitory Concentration, Mixture (Citrobacter freundii; concentration of the component in SP+PB mixture, SP/PB ratio 41-81): 6.7 ppm | Minimum Inhibitory Concentration, Compound Used Alone (Fusarium solani; [11]): 243.8 ppm | Minimum Inhibitory Concentration, Mixture (Fusarium solani; [14]): 40.6 ppm | Minimum Inhibitory Concentration, Compound Used Alone (Chaetomium globosium; [11]): 12.7 ppm | Minimum Inhibitory Concentration, Mixture (Chaetomium globosium; concentration of the component in SP+PB mixture, SP/PB ratio 1/10-1/5): 3.8 ppm | Minimum Inhibitory Concentration, Compound Used Alone (Candida albicans [6]; Table 3): 32 ppm | Minimum Inhibitory Concentration, Mixture Range (Candida albicans [6]; [15]): 1-16 ppm | Minimum Inhibitory Concentration, Compound Used Alone (Pseudomonas aeruginosa [7]; Table 3): 128 ppm | Minimum Inhibitory Concentration, Mixture Range (Pseudomonas aeruginosa [7]; [16]): 32-64 ppm | Minimum Inhibitory Concentration, Compound Used Alone (Pseudomonas fluorescens [8]; Table 3): 128 ppm | Minimum Inhibitory Concentration, Mixture Range (Pseudomonas fluorescens [8]; [17]): ≤1-32 ppm | Minimum Inhibitory Concentration, Compound Used Alone ([9]; Table 3): 32 ppm | Minimum Inhibitory Concentration, Mixture Range [9, 18]: 16-32 ppm | Minimum Inhibitory Concentration, Compound Used Alone (Proteus mirabilis [10]; Table 3): 512 ppm | Minimum Inhibitory Concentration, Mixture Range (Proteus mirabilis [10]; [19]): 256 ppm

Polymyxin E methanesulfonate [PE]
Minimum Inhibitory Concentration, Compound Used Alone (Candida albicans [6]; Table 3): > 8200 ppm | Minimum Inhibitory Concentration, Mixture Range (Candida albicans [6]; [15]): 64-2048 ppm | Minimum Inhibitory Concentration, Compound Used Alone (Candida albicans [6]; Table 4): > 8200 ppm | Minimum Inhibitory Concentration, Mixture Range (Candida albicans [6]; Table 4, concentration of the component in ZP+PE mixtures, ZP/PE range 1/2048-1/4): 32-2048 ppm | Minimum Inhibitory Concentration, Compound Used Alone (Pseudomonas aeruginosa [7]; Table 3): 16 ppm | Minimum Inhibitory Concentration, Mixture Range (Pseudomonas aeruginosa [7]; [16]): 4-8 ppm | Minimum Inhibitory Concentration, Compound Used Alone (Pseudomonas aeruginosa [7]; Table 4): 16 ppm | Minimum Inhibitory Concentration, Mixture Range (Pseudomonas aeruginosa [7]; Table 4, concentration of the component in ZP+PE mixtures, ZP/PE range 2-8): 4-8 ppm | Minimum Inhibitory Concentration, Compound Used Alone (Pseudomonas fluorescens [8]; Table 3): 256 ppm | Minimum Inhibitory Concentration, Mixture Range (Pseudomonas fluorescens [8]; [17]): 4-128 ppm | Minimum Inhibitory Concentration, Compound Used Alone (Pseudomonas fluorescens [8]; Table 4): 256 ppm | Minimum Inhibitory Concentration, Mixture Range (Pseudomonas fluorescens [8]; Table 4, concentration of the component in ZP+PE mixtures, ZP/PE range ≤1/128-4): 4-128 ppm | Minimum Inhibitory Concentration, Compound Used Alone ([9]; Table 3): 64 ppm | Minimum Inhibitory Concentration, Mixture Range [9, 18]: 4-32 ppm | Minimum Inhibitory Concentration, Compound Used Alone ([9]; Table 4): 64 ppm | Minimum Inhibitory Concentration, Mixture Range ([9]; Table 4, concentration of the component in ZP+PE mixtures, ZP/PE range 1/4-4): 4-32 ppm | Minimum Inhibitory Concentration, Compound Used Alone (Proteus mirabilis [10]; Table 3): > 16,400 ppm | Minimum Inhibitory Concentration, Mixture Range (Proteus mirabilis [10]; [19]): 64-4096 ppm | Minimum Inhibitory Concentration, Compound Used Alone (Proteus mirabilis [10]; Table 4): > 16,400 ppm | Minimum Inhibitory Concentration, Mixture Range (Proteus mirabilis [10]; Table 4, concentration of the component in ZP+PE mixtures, ZP/PE range 1/1024): 4096 ppm
